Seven molecules from ChEMBL document CHEMBL1201862, “PubChem BioAssay data set” (2004) can be followed below.

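Each compound was tested at five concentrations against cells in 96-well plates for 48 hours. GI50 = concentration required for 50% inhibition of growth.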 Calls of active or inactive are those of the source. Rule as the data show it: active = GI50 up to about 1.1 µM and inactive = higher.

Among the test systems are HCT-116; HCT-15; HOP-62; HT-29; Hs-578T; K562; MCF7; MDA-MB-435; NCI-H460; NCI/ADR-RES; OVCAR-5; OVCAR-8; PC-3; SF-539; SK-MEL-5; SK-OV-3; SN12C; SNB-19; SW-620; UACC-62.
What all share (assay): growth of human tumour cells (NCI), 48 h

On to `COC(=O)CC1C=CC(C)(OC)OO1` (stereo not given), for which the GI50 with HCT-116 is > 100 µM (inactive); with HCT-15, 39.4 µM; with HOP-62, > 100 µM (inactive); in the test on HT-29, > 100 µM (inactive); with Hs-578T, > 100 µM (inactive); with K562, 19.7 µM (inactive). In addition, the GI50 in the test on MCF7 was 53.1 µM (inactive); with MDA-MB-435 it was > 100 µM (inactive); in the test on NCI-H460, 4.84 µM (inactive); in the test with NCI/ADR-RES, > 100 µM (inactive); with OVCAR-5, > 100 µM (inactive); with OVCAR-8 it was > 100 µM (inactive). The GI50 with PC-3, in the test on SF-539, in the test with SK-MEL-5, in the test on SK-OV-3, in the test with SN12C and with SNB-19 was > 100 µM (inactive) throughout. Moreover, the results for the GI50 in the test on SW-620 and in the test with UACC-62 were 27.2 µM (inactive) and 49.9 µM (inactive), respectively.
As for `FC(F)(F)C1(c2ccccc2)SCc2nc3ccccc3n21` (stereo not given), the GI50 was 65.5 µM (inactive) with HCT-116; 78.7 µM in the test with HCT-15; > 100 µM (inactive) in the test on HOP-62; 62.5 µM (inactive) in the test on HT-29; > 100 µM (inactive) with Hs-578T; 43.7 µM (inactive) in the test on K562. The GI50 in the test with MCF7 was > 100 µM (inactive); with MDA-MB-435 it was 40.6 µM (inactive); with NCI-H460 it was 80.9 µM (inactive); in the test on NCI/ADR-RES, > 100 µM (inactive); in the test on OVCAR-5, > 100 µM (inactive); in the test on OVCAR-8, > 100 µM (inactive). The GI50 was 83.6 µM (inactive) in the test with PC-3; > 100 µM (inactive) with SF-539; 66.1 µM (inactive) with SK-MEL-5; > 100 µM (inactive) in the test on SK-OV-3; > 100 µM (inactive) with SN12C; > 100 µM (inactive) in the test on SNB-19. The GI50 in the test on SW-620 and with UACC-62 was > 100 µM (inactive) throughout.
In the case of `O=S1(=O)CCN(Cc2ccccn2)CC1`, the GI50 in the test on HCT-116 was > 100 µM (inactive); in the test on HCT-15, > 100 µM; in the test on HOP-62 it was > 100 µM (inactive); with HT-29, > 100 µM (inactive); with Hs-578T it was > 100 µM (inactive); with K562 it was > 100 µM (inactive). For the same molecule, the GI50 in the test with MCF7, with MDA-MB-435, in the test on NCI-H460, with NCI/ADR-RES, in the test on OVCAR-5 and with OVCAR-8 was > 100 µM (inactive) throughout. The GI50 in the test on PC-3, with SF-539, with SK-MEL-5, with SK-OV-3, with SN12C and with SNB-19 was > 100 µM (inactive) each time. For the same molecule, the GI50 in the test on SW-620 and in the test on UACC-62 was > 100 µM (inactive) each time.
Regarding `COc1ccc2c(c1)N=C1CSC(c3cc([N+](=O)[O-])ccc3Cl)N1C2` (stereo not given), the GI50 in the test on HCT-116 is 20.1 µM (inactive); in the test on HCT-15, 28.6 µM; in the test with HOP-62, 32.1 µM (inactive); with HT-29, 23.6 µM (inactive); with Hs-578T, 39.8 µM (inactive); in the test on K562, 26 µM (inactive). Besides, the GI50 in the test with MCF7 is 14.8 µM (inactive); in the test on MDA-MB-435 it was 15.6 µM (inactive); in the test with NCI-H460, 19.4 µM (inactive); with NCI/ADR-RES, 23.4 µM (inactive); with OVCAR-5, 24 µM (inactive); in the test on OVCAR-8, 29 µM (inactive). Further, the GI50 in the test with PC-3 was 21.5 µM (inactive); in the test on SF-539, 28.5 µM (inactive); in the test on SK-MEL-5 it was 40.6 µM (inactive); in the test on SK-OV-3 it was 25.2 µM (inactive); with SN12C, 16.3 µM (inactive); with SNB-19, 32.3 µM (inactive). The GI50 in the test on SW-620 was 29.3 µM (inactive); with UACC-62 it was 18.8 µM (inactive).
For the molecule `COc1c(C)c(C/C=C(\C)CCCCO)c(OC)c(OC)c1OC`, the GI50 was > 100 µM (inactive) in the test on HCT-116; > 100 µM in the test on HCT-15; > 100 µM (inactive) in the test on HOP-62; > 100 µM (inactive) in the test with HT-29; > 100 µM (inactive) in the test with Hs-578T; 24.4 µM (inactive) with K562. Moreover, the GI50 was > 100 µM (inactive) in the test with MCF7; > 100 µM (inactive) in the test with MDA-MB-435; 18 µM (inactive) in the test on NCI-H460; > 100 µM (inactive) in the test with NCI/ADR-RES; > 100 µM (inactive) with OVCAR-5; > 100 µM (inactive) in the test with OVCAR-8. In addition, the GI50 in the test with PC-3 is > 100 µM (inactive); in the test with SF-539, > 100 µM (inactive); in the test with SK-MEL-5, 88.7 µM (inactive); in the test on SK-OV-3, > 100 µM (inactive); with SN12C, 28.7 µM (inactive); with SNB-19 it was > 100 µM (inactive). In addition, the GI50 in the test with SW-620 and in the test on UACC-62 was > 100 µM (inactive) in each case.
Regarding `Cc1nn(C(=O)c2ccccc2O)c2c1C(c1ccc([N+](=O)[O-])cc1)SC(=N)N2` (stereo not given), the GI50 in the test on HCT-116 was 2.48 µM (inactive); with HCT-15, 5.14 µM; with HOP-62, 4.92 µM (inactive); in the test on HT-29 it was > 6.67 µM (inactive); in the test on Hs-578T, 0.676 µM (active); in the test with K562, 1.17 µM (inactive). The GI50 with MCF7 was 3.72 µM (inactive); with MDA-MB-435, 1.45 µM (inactive); with NCI-H460 it was 3.79 µM (inactive); with NCI/ADR-RES it was 4.51 µM (inactive); in the test on OVCAR-5, > 7.76 µM (inactive); with OVCAR-8, 4 µM (inactive). Further, the GI50 was > 9.53 µM (inactive) in the test on PC-3; 0.984 µM (active) with SF-539; > 6.43 µM (inactive) in the test on SK-MEL-5; 6.38 µM (inactive) with SK-OV-3; 4.78 µM (inactive) with SN12C; 6.05 µM (inactive) with SNB-19. Moreover, the GI50 with SW-620 is 6.17 µM (inactive); with UACC-62, 2.03 µM (inactive).
On to `FC1(F)ON2CCc3ccccc3C2[C@H]1c1ccccc1` (stereo not given in full), for which the GI50 was 65.6 µM (inactive) with HCT-116; > 10 µM with HCT-15; 90.4 µM (inactive) with HOP-62; > 10 µM (inactive) in the test on HT-29; 4.25 µM (inactive) in the test on Hs-578T; > 10 µM (inactive) in the test with K562. Moreover, the GI50 was > 10 µM (inactive) in the test with MCF7; > 10 µM (inactive) with MDA-MB-435; > 10 µM (inactive) in the test on NCI-H460; 92.9 µM (inactive) with NCI/ADR-RES; > 10 µM (inactive) with OVCAR-5; 39.9 µM (inactive) in the test on OVCAR-8. Moreover, the GI50 in the test with PC-3 is > 10 µM (inactive); in the test with SF-539, 91.8 µM (inactive); in the test with SK-MEL-5 it was > 10 µM (inactive); in the test with SK-OV-3 it was > 10 µM (inactive); in the test with SN12C, > 10 µM (inactive); in the test with SNB-19, > 10 µM (inactive). Besides, the GI50 in the test on SW-620 and in the test with UACC-62 was > 10 µM (inactive) in each case.
